Results: US11413348B2, “Low molecular weight cationic lipids for oligonucleotide delivery” (SIRNA THERAPEUTICS, INC., priority 2010, dated 2022)

Assays:
[1] = Determination of cationic lipid levels in rat liver (LC/MS-MS); type: in vivo; settings: rats, FIG. 3
Method: Liver tissue was weighed into 20-ml vials and homogenized in 9 v/w of water using a GenoGrinder 2000 (OPS Diagnostics, 1600 strokes/min, 5 min). A 50 μL aliquot of each tissue homogenate was mixed with 300 μL of extraction/protein precipitating solvent (50/50 acetonitrile/methanol containing 500 nM internal standard) and the plate was centrifuged to sediment precipitated protein. A volume of 200 μL of each supernatant was then transferred to separate wells of a 96-well plate and 10 μl samples were directly analyzed by LC/MS-MS.
Standards were prepared by spiking known amounts of a methanol stock solution of compound into untreated rat liver homogenate (9 vol water/weight liver). Aliquots (50 μL) each standard/liver homogenate was mixed with 300 μL of extraction/protein precipitating solvent (50/50 acetonitrile/methanol containing 500 nM internal standard) and the plate was centrifuged to sediment precipitated protein. A volume of 200 μL of each supernatant was transferred to separate wells of a 96-well plate and 10 μl of each standard was directly analyzed by LC/MS-MS.
Absolute quantification versus standards prepared and extracted from liver homogenate was performed using an Aria LX-2 HPLC system (Thermo Scientific) coupled to an API 4000 triple quadrupole mass spectrometer (Applied Biosystems). […]

[2] = system: CTNNB1 mRNA; experiment: Rhesus monkey in vivo evaluation of β-catenin efficacy (liver CTNNB1 mRNA); settings: beta-catenin siRNA, doses ranging from 0.67-3.34 mg/m^2, intravenous bolus, FIG. 5
Method: On study day −7 predose liver biopsy samples (˜0.5-1 gram/sample) were collected from male rhesus monkeys by laparoscopic surgical resection (resection of one biopsy sample from outer edge of one randomly selected liver lobe per monkey). A 5 mm tissue punch was used to sample three non-adjacent ˜50 mg samples from each predose biopsy. Samples were preserved in RNAlater™ (Ambion) for later CTNNB1 mRNA analysis.
On study day 0 monkeys were administered suspensions of the lipid nanoparticle (LNP) test articles in phosphate buffered saline (0.05-0.1 mg siRNA/mL) via single-dose intravenous bolus injection at target doses of 0.67, 1.34 or 3.34 mg siRNA/m^2. […]
CTNNB1 mRNA levels were measured by relative quantitative RT-PCR using a primer/probe set validated for CTNNB1 and normalized against mRNA levels of peptidylprolyl isomerase B (also known as PPIB or cyclophilin B) and RNA levels of 18S ribosomal RNA (18S rRNA). Change in CTNNB1 mRNA liver expression was measured as the difference in PCR threshold cycle number (ΔΔCt) between post-dose samples and each corresponding monkey's predose liver samples.
Calculation of CTNNB1 mRNA knockdown (with respect to pretreatment levels) was calculated from ΔΔCt using the following relationship: mRNA (% knockdown)=100−(100/2^−ΔΔCt)

[3] = Rhesus monkey in vivo evaluation of ALT increases; settings: serum, FIG. 6
Method: Alanine aminotransferase (ALT) is measured in serum that is harvested from clotted monkey whole blood after centrifugation. A Roche Modular System automated chemistry analyzer measures the enzymatic activity of ALT in the serum by using International Federation of Clinical Chemistry standardized procedures and reagents. The analyzer's computer uses absorbance measurements to calculated ALT activity in the sample as compared to a standard curve. The ALT activity is reported in International Units per Liter (IU/L).

[4] = system: β-catenin mRNA; experiment: TRE-MET HCC mouse pharmacodynamic study (β-catenin mRNA by Taqman in liver and tumor); type: in vivo; settings: intravenous, 72 hours; for knockdown of β-catenin mRNA in both liver and tumor tissues: FIGS. 8, 9, 12, 13
Method: The activity LNPs in delivering a β-catenin siRNA (siRNAβ-cat) to hepatocellular carcinoma was evaluated in a mouse hepatocellular carcinoma (HCC) model, named TRE-MET. TRE-MET mice are transgenic mice in an FVB/N genetic background where the human MET transgene is expressed under an hCMV promoter with hepatamerized upstream tet-operators. When TRE-MET mice are crossed with the LAP-tTA line, the double transgenic (TRE-MET/LAP-tTA) mice express MET in a liver-specific manner which can be suppressed by administration of doxycycline. These mice develop HCC at 3 months of age with visually identifiable tumor nodules on the liver surface and the tumors display a diffuse trabecular growth pattern typical for HCC and express the HCC tumor marker alpha-fetoprotein (AFP). In addition, the mutation analysis in the tumor of TRE-MET mice has also identified activating mutations in the beta-catenin gene in approximately 95% of tumors. These features make the TRE-MET HCC mouse model suitable for evaluating LNP-mediated delivery of β-catenin siRNA and the resultant efficacy on tumor growth.
The effect of β-catenin containing LNPs in silencing β-catenin mRNA in both liver and tumor tissues was first evaluated in a pharmacodynamic (PD) study in TRE-MET mice bearing tumors. Different doses of LNPs or a high dose of LNPcontrol siRNA were intravenously administered and 72 hours later, necropsy was performed to collect liver and tumor tissues for the determination of β-catenin mRNA levels by Taqman. […] The KD in tumors ranges from 70% (2 mpk) to about 40% (0.1 or 0.05 mpk).

Structure (SMILES)	cationic lipid liver levels compared with RDV containing DLinKC2DMA (Compound 45) or MC3 (Compound 46) [1]	CTNNB1 mRNA knockdown in liver [2]	peak ALT elevations compared with RDV containing DLinKC2DMA (Compound 45) or MC3 (Compound 46) [3]	β-catenin mRNA KD in normal liver ([4]; 0.05 mpk)	β-catenin mRNA KD in normal liver ([4]; 0.1 mpk)	β-catenin mRNA KD in tumors ([4]; 0.1 or 0.05 mpk)	β-catenin mRNA KD in tumors ([4]; 0.25 mpk)	knockdown of β-catenin mRNA in both liver and tumor tissues [4]	β-catenin mRNA KD in tumors ([4]; 2 mpk)
CCCCC/C=C\C/C=C\CCCCCCCCCC(CCCCCCCCC)CCN(C)C (stereo not shown) [Compound 32, (13Z,16Z)—N,N-dimethyl-3-nonyldocosa-13,16-dien-1-amine]	either similar to or lower than	robust KD	lower peak ALT elevations	78%	76%	20-30%	47%	robust and dose-dependent knockdown	
CCCCCCCCCC(CCCCCCCC1CC1CCCCCCCC)N(C)C [Compound 33, N,N-dimethyl-1-[(1S,2R)-2-octylcyclopropyl]hepladecan-8-amine]	either similar to or lower than	robust KD	lower peak ALT elevations	69%	88%	about 40%		robust and dose-dependent knockdown	70%
